{"source": "ChEMBL document CHEMBL1201862", "about": "“PubChem BioAssay data set” (2004)", "key": {"[1]": {"biological_target": "Voltage-dependent T-type calcium channel subunit alpha-1H (Homo sapiens, UniProt O95180)", "sequence (O95180 whole entry)": "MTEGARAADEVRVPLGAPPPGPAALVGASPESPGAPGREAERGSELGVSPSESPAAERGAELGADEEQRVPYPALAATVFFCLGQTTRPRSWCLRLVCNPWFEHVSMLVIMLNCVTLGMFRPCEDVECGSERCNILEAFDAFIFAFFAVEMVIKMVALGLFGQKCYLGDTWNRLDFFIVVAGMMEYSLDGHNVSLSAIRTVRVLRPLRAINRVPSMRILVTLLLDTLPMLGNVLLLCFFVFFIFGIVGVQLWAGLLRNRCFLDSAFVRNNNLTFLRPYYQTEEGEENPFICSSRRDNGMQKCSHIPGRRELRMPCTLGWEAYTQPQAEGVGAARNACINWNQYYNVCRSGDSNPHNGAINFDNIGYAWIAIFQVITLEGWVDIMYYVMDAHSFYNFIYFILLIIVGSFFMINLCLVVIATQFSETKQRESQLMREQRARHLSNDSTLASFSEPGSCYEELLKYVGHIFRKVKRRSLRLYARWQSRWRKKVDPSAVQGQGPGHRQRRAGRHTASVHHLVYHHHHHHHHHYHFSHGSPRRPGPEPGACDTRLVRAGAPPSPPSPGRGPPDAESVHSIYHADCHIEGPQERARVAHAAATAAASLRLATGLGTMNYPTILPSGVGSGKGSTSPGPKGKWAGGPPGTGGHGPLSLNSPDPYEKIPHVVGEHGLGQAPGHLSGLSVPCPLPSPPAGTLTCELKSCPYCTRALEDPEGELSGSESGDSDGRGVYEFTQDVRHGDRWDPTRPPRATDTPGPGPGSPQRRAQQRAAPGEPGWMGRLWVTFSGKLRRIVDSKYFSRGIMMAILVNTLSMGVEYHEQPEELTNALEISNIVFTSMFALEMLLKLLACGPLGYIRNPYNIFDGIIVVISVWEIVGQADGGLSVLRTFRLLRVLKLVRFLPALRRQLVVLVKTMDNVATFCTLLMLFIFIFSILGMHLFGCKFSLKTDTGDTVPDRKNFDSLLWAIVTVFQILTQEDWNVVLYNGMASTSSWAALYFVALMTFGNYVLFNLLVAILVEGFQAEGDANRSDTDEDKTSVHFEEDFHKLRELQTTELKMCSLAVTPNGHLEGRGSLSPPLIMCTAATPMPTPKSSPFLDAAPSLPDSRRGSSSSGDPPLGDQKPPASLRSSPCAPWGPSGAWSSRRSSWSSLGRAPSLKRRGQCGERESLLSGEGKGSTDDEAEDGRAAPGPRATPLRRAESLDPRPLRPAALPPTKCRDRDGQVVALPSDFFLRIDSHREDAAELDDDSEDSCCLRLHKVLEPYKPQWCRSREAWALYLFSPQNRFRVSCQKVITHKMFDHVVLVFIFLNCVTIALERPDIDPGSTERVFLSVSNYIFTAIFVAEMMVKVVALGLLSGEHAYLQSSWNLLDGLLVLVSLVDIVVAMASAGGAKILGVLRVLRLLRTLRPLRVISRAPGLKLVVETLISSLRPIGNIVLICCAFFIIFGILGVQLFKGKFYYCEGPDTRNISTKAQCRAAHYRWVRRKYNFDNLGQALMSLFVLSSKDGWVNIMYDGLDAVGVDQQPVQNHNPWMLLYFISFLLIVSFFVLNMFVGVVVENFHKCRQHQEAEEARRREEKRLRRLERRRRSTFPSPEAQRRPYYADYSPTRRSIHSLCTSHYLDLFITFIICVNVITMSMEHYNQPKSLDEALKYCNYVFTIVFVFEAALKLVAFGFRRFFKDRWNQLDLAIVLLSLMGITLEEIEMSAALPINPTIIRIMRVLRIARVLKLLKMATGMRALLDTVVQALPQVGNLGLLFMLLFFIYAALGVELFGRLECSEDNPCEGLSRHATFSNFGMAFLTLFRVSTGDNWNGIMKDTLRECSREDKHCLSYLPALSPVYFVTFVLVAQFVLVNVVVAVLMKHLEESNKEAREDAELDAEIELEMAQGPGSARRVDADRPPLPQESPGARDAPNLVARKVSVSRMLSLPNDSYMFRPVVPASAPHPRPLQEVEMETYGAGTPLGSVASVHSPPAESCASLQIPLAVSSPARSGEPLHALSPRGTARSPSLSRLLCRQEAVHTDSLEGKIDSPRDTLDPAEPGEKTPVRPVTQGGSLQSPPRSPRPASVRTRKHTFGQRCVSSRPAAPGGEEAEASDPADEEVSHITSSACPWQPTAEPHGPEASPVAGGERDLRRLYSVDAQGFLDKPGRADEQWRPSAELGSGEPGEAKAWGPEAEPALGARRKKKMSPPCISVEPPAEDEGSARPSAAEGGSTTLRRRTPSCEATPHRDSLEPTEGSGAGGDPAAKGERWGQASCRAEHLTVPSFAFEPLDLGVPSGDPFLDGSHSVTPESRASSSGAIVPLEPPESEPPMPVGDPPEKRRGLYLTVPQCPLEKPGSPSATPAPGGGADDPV", "assay_type": "functional"}, "Streptokinase A": {"biological_target": "T1, Streptokinase A (Streptococcus pyogenes serotype M1, UniProt P10520)", "T1 sequence (P10520 whole entry)": "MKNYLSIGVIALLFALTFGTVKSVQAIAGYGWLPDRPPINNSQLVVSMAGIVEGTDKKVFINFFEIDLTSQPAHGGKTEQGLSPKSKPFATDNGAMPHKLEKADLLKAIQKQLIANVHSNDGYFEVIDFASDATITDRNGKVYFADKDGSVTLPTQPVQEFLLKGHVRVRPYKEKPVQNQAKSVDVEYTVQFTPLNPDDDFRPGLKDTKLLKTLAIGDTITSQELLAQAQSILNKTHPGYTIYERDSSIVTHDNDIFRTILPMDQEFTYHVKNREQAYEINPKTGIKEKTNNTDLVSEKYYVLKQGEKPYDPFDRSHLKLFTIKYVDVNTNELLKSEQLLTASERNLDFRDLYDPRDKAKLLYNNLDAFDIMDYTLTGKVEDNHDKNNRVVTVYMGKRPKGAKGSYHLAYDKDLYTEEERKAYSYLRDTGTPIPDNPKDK", "assay": "viability-normalized secreted streptokinase activity reduction – plasminogen activation absorbance, OD405, dose response (AID 1914);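 also: secreted streptokinase activity via plasminogen activation per viability signal from cell pellet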", "assay_type": "functional, Streptococcus pyogenes M1 GAS"}, "Cytochrome P450 2C19": {"biological_target": "Cytochrome P450 2C19 (Homo sapiens, UniProt P33261)", "sequence (P33261 whole entry)": "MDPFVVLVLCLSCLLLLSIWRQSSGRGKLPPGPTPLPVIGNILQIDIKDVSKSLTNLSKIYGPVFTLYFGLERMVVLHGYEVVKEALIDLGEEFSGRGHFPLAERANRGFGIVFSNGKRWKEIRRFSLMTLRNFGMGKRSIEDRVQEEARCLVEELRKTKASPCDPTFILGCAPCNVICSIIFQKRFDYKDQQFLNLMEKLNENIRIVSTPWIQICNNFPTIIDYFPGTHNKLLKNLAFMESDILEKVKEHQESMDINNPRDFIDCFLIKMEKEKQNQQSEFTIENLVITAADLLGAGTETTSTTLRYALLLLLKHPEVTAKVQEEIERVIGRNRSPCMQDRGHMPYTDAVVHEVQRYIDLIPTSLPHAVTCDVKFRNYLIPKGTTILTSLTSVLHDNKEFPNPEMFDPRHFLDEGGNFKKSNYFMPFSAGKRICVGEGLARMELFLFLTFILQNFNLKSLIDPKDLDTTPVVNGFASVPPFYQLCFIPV", "assay": "Cytochrome panel assay with activity outcomes. Panel member name: p450-cyp2c19 Compounds with AC50 equal or less than 10 uM are considered active", "assay_type": "functional", "settings": "read-out: AC50"}, "Cytochrome P450 2C9": {"biological_target": "Cytochrome P450 2C9 (Homo sapiens, UniProt P11712)", "sequence (P11712 whole entry)": "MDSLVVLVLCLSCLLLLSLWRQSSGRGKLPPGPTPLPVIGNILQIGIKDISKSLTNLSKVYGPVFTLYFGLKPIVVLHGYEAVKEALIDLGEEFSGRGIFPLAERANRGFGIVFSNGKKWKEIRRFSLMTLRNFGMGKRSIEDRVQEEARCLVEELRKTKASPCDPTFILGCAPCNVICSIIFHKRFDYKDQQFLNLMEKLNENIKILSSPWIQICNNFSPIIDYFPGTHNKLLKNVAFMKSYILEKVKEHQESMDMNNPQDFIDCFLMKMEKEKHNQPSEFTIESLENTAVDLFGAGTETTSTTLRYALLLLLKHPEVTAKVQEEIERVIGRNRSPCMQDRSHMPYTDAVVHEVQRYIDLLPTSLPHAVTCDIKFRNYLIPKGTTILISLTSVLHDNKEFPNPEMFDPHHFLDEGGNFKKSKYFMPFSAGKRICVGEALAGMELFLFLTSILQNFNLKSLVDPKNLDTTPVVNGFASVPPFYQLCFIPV"}, "[2]": {"assay": "Luminescence Cell-Based Dose Retest to Confirm Inhibitors of Cancer Stem Cells. [Related pubchem assays (depositor defined):AID2717, AID2721]", "assay_type": "functional", "settings": "Homo sapiens"}, "Cytochrome P450 1A2": {"biological_target": "T2, Cytochrome P450 1A2 (Homo sapiens, UniProt P05177)", "T2 sequence (P05177 whole entry)": "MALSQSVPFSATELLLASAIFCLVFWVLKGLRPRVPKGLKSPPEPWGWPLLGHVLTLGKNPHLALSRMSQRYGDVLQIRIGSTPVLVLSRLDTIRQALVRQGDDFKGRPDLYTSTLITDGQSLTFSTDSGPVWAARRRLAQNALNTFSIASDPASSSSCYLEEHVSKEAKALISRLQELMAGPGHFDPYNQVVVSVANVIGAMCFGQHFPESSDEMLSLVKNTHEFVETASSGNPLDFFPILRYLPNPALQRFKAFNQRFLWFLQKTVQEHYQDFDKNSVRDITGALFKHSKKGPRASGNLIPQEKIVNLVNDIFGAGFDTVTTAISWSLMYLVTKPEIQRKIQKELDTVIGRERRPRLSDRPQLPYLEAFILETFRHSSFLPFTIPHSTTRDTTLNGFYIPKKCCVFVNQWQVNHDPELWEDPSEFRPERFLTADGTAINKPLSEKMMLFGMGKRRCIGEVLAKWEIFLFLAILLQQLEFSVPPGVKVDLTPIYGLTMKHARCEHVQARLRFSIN"}, "Streptococcus": {"system": "Streptococcus", "assay": "GAS UMAA2166 growth inhibition – luminescence, BacTiterGlo, counter-screen for streptokinase expression inhibitor project, dose response (AID 1915);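 also: potency for reduction of bacterial viability or growth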", "assay_type": "functional, organism-based"}, "[3]": {"system": "Streptococcus sp. 'group A'", "assay": "Streptococcus pyogenes SK(-)GAS viability under kanamycin – luminescence, BacTiterGlo, confirmation, counter-screen for streptokinase expression inhibitor project, dose response (AID 1900)", "assay_type": "functional, organism-based"}, "[4]": {"assay": "viability of PTEN-deleted HCT116 cells – cell-based, HCT116 PTEN knockout, dose response (AID 1047);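 also: cells exposed to compound for 60 hours before readout; potency for loss of cell viability measured by luminescence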", "assay_type": "functional"}, "[5]": {"assay": "HPDE-C7 pancreatic duct cell viability loss – fluorescence, HTS (AID 430)", "assay_type": "functional, cell-based", "settings": "Homo sapiens"}, "[6]": {"assay": "viability of HCT116 lacking mutant beta-catenin – cell-based, human colon tumor, dose response (AID 1045);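 also: cells exposed to compound for 60 hours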", "assay_type": "functional"}, "[7]": {"assay": "viability loss of HPDE-C7K cells – cell-based, fluorescence, HTS, primary screen (AID 431)", "assay_type": "functional", "settings": "Homo sapiens"}, "[8]": {"biological_target": "T3, Endoribonuclease toxin MazF (Escherichia coli K-12, UniProt P0AE70)", "T3 sequence (P0AE70 whole entry)": "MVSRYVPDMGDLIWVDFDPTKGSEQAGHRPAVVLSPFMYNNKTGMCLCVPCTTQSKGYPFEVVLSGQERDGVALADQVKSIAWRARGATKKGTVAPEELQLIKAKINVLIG", "assay": "activation of MazEF endoribonuclease cleavage – biochemical, fluorescence, single-stranded RNA substrate, uHTS hits, dose response (AID 588481)", "assay_type": "functional"}, "[9]": {"biological_target": "T3, Endoribonuclease toxin MazF", "assay": "substrate-only fluorescence increase artefacts – biochemical, single-stranded RNase substrate, counter-screen for MazEF activator project, dose response (AID 588502)", "assay_type": "functional"}, "H4": {"system": "H4", "assay": "Luminescence Cell-Based Dose Response HTS to Identify Activators of 5'UTR Stem-Loop Driven Prion Protein mRNA Translation in H4 Neuroglioblastoma Cells. [Related pubchem assays: 1829 (Project Summary), 1814 (Primary HTS)]", "assay_type": "functional", "settings": "Homo sapiens"}, "[10]": {"assay": "Luminescence Cell-Based Dose Confirmation HTS to Identify Activators of 5'UTR Stem-Loop Driven Alpha-Synuclein mRNA Translation in H4 Neuroglioblastoma Cells. [Related pubchem assays: 1829 (Project Summary), 1814 (Primary HTS)]", "assay_type": "functional"}, "[11]": {"assay": "Luminescence Cell-Based Dose Response HTS to Identify Activators of Luciferase Translation or Activity in H4 […] Cells. [Related pubchem assays: 1829 (Project Summary), 1814 (Primary HTS)]", "assay_type": "functional"}, "[12]": {"assay": "HEK-293T viability loss after treatment – luminescence, T-cell screen hits, cytotoxicity control for TCR NF-kB inhibitor project, dose response (AID 489026);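 also: cells exposed to compound about 14 hours before the viability readout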", "assay_type": "functional, cell-based"}, "[13]": {"biological_target": "Induced myeloid leukemia cell differentiation protein Mcl-1 (Homo sapiens, UniProt Q07820)", "sequence (Q07820 whole entry)": "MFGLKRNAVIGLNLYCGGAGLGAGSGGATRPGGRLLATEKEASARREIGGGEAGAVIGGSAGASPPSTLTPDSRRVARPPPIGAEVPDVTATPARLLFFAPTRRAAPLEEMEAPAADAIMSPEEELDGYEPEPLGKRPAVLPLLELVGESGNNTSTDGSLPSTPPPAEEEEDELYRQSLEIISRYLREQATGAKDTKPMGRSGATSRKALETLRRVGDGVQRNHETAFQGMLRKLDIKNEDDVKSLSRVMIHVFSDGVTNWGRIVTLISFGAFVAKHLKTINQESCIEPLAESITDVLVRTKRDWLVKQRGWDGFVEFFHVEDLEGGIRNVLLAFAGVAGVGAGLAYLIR", "assay_type": "functional"}, "Genome polyprotein": {"biological_target": "Genome polyprotein (dengue virus type 2, UniProt P29990)", "sequence (P29990 2492-3391 limits assumed)": "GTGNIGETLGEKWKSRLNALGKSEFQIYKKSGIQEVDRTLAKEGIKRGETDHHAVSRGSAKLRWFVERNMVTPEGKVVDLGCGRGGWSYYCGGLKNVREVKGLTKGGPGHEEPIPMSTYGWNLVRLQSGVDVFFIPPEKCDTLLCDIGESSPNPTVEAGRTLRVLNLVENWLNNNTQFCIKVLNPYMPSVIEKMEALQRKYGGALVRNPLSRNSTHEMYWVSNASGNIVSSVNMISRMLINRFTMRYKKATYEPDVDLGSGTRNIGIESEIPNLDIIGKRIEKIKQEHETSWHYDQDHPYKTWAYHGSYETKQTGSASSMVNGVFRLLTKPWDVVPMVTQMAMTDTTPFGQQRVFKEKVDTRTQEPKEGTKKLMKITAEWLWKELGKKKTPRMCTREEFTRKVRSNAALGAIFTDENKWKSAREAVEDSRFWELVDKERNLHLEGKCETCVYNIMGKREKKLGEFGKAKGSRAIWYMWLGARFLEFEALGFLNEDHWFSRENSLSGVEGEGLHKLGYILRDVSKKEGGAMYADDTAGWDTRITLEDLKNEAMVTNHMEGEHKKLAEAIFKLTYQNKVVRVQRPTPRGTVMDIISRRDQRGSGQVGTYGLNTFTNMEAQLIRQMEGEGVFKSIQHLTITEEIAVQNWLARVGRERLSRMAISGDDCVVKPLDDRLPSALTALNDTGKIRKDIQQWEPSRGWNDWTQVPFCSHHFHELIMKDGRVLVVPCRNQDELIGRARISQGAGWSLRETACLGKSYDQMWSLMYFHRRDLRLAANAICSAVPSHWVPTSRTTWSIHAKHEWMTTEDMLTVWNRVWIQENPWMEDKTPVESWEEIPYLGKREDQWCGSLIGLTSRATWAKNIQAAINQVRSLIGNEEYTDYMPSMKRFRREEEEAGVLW", "assay": "flavivirus cap methylation enzyme inhibition – biochemical, confirmation dose response, primary screen (AID 588689)", "assay_type": "functional"}, "Cytochrome P450 3A4": {"biological_target": "Cytochrome P450 3A4 (Homo sapiens, UniProt P08684)", "sequence (P08684 whole entry)": "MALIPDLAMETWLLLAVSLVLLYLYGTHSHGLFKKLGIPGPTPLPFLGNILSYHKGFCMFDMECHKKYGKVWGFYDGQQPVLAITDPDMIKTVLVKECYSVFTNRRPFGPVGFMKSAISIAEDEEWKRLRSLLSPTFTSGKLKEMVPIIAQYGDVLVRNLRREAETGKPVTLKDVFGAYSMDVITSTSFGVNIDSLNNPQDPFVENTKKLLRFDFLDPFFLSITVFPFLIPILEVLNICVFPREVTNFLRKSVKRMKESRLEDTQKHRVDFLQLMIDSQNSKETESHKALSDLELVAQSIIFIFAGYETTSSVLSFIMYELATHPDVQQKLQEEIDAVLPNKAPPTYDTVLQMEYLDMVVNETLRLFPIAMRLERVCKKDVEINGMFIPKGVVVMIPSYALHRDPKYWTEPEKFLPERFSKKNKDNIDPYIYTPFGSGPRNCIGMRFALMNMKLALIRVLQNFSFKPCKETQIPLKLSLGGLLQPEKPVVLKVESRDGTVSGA"}}, "note": "The source made the active and inactive calls.", "data": [{"smiles": "O=C(Nc1ccc2c(c1)CCC2)c1cccc(S(=O)(=O)N2CCN(c3ccccc3)CC2)c1", "values": [{"measurement": "EC50", "setting": "[1]", "result": "6.08 µM (active)"}]}, {"smiles": "CCNc1nc(Oc2c(Cl)cccc2Cl)cc(C(F)(F)F)n1", "values": [{"measurement": "EC50", "setting": "Streptokinase A", "result": "17.6 µM (active)"}, {"measurement": "AC50", "setting": "Cytochrome P450 2C19", "result": "2 µM (inconclusive)"}, {"measurement": "AC50", "setting": "Cytochrome P450 2C9", "result": "inconclusive"}, {"measurement": "AC50", "setting": "[2]", "result": "8.17 µM (active)"}, {"measurement": "AC50", "setting": "Cytochrome P450 1A2", "result": "14.1 µM (inconclusive)"}, {"measurement": "EC50", "setting": "Streptococcus", "result": "> 150 µM (not active)"}, {"measurement": "EC50", "setting": "[3]", "result": "7.68 µM (active)"}]}, {"smiles": "CCC(Sc1nc2cc3c(cc2c(=O)n1Cc1ccco1)OCO3)C(=O)Nc1cccc(OC)c1", "note": "(stereo unspecified)", "values": [{"measurement": "EC50", "setting": "[4]", "result": "3.73 µM (active)"}, {"measurement": "EC50", "setting": "[5]", "result": "4.41 µM (active)"}, {"measurement": "EC50", "setting": "[6]", "result": "3.68 µM (active)"}, {"measurement": "AC50", "setting": "Cytochrome P450 1A2", "result": "4.47 µM (inconclusive)"}, {"measurement": "EC50", "setting": "[7]", "result": "4.17 µM (active)"}]}, {"smiles": "NNS(=O)(=O)c1ccc(N2CCCC2=O)c([N+](=O)[O-])c1", "values": [{"measurement": "EC50", "setting": "[8]", "result": "82 µM (inactive)"}, {"measurement": "EC50", "setting": "[9]", "result": "> 99 µM (inactive)"}]}, {"smiles": "Cc1nc2ccc(C(=O)OCc3ccccc3Br)cc2nc1C", "values": [{"measurement": "EC50", "setting": "H4", "result": "0.281 µM (active)"}, {"measurement": "EC50", "setting": "[8]", "result": "> 99 µM (inactive)"}, {"measurement": "EC50", "setting": "[10]", "result": "10.8 µM (active)"}, {"measurement": "EC50", "setting": "[11]", "result": "66.7 µM (active)"}, {"measurement": "EC50", "setting": "[9]", "result": "> 99 µM (inactive)"}]}, {"smiles": "Cc1ccc(-c2nc3ccccn3c2NCc2ccc3c(c2)OCO3)cc1", "values": [{"measurement": "EC50", "setting": "[1]", "result": "12.8 µM (active)"}]}, {"smiles": "Cc1cccc(OCCNC(=O)c2ccc(Cl)c(S(=O)(=O)NCc3cccnc3)c2)c1", "values": [{"measurement": "IC50", "setting": "[12]", "result": "> 80 µM (inactive)"}]}, {"smiles": "CC(=O)Nc1sc(N/N=C/c2ccc(O)cc2)nc1-c1ccc(C)cc1", "values": [{"measurement": "IC50", "setting": "[13]", "result": "2.84 µM (active)"}]}, {"smiles": "Cc1ccc(S(=O)(=O)N(CC(=O)N/N=C\\c2cccs2)c2cccc3cccnc23)cc1", "values": [{"measurement": "EC50", "setting": "[8]", "result": "> 99 µM (inactive)"}, {"measurement": "EC50", "setting": "[9]", "result": "> 99 µM (inactive)"}]}, {"smiles": "Nc1scc2c(C(=O)O)nn(-c3ccccc3)c(=O)c12", "values": [{"measurement": "IC50", "setting": "Genome polyprotein", "result": "45 µM (active)"}]}, {"smiles": "COc1cc(N)c(Cl)cc1C(=O)NC1CCN(Cc2ccccc2)CC1", "note": "[CLEBOPRIDE]", "values": [{"measurement": "AC50", "setting": "Cytochrome P450 2C9", "result": "inconclusive"}, {"measurement": "AC50", "setting": "Cytochrome P450 1A2", "result": "12.6 µM (inconclusive)"}, {"measurement": "AC50", "setting": "Cytochrome P450 3A4", "result": "3.16 µM (inconclusive)"}]}, {"smiles": "COc1ccc2c(c1O)-c1c(OC)c(OC)cc3c1[C@H](C2)N(C)CC3", "note": "[ISOCORYDINE]", "values": [{"measurement": "AC50", "setting": "Cytochrome P450 2C9", "result": "inconclusive"}, {"measurement": "AC50", "setting": "Cytochrome P450 1A2", "result": "10 µM (inconclusive)"}]}]}
